US7476729B2, “Dbait and uses thereof” (Institut Curie, priority 2003, dated 2009)

Experiments:
[1] = test system: γ-H2AX in Hep2 cells; test: Kinetics of persistence of DSB sites (γ-H2AX) by FACS in irradiated Hep2 cells; type: cell-based, human; conditions: Hep2, 10 Gy, 0 min to 7 days
Method: To investigate the effect of Dbait on ionizing radiation-induced g-H2AX foci formation and loss, Dbait32H-Cy3 (SEQ ID NO: 1) were transfected in the Hep2 cells by superfect (Qiagen). Transfected or untransfected Hep2 cells were irradiated at 10 Gy. Cells were fixed at different times (0 min, 30 min, 1 hour, 5 hours, 24 hours, 48 hours, 72 hours and 7 days). Primary mouse monoclonal antibody for g-H2AX (ser139) (Upstate, Tempcula, Calif., USA) was used in 1/500 dilution and incubated for 2 hours at 0° C., then washed by PBS buffer and incubated with Alexa 488-conjugated second antibody anti mouse IgG (Molecular Probe, Eugene, Oreg., USA) diluted in 1/200 for 1 hour in dark room.

[2] = test system: γ-H2AX foci in GMA32 cells; test: Immunodetection of γ-H2AX DSB foci in GMA32 cells; type: cell-based, Chinese hamster; conditions: GMA32, Dbait with lipofectamine, no irradiation
Method: Under the same conditions, the immunodetection of DSB foci of γ-H2AX phosphorylated on serine 139 by γ-H2AX labeling (bright dots or patches in nuclei) was performed in the untreated GMA32 cells, the cells transfected alone, or transfected with different Dbait molecules by lipofectamine. The counterstaining of cell membranes and nuclei were achieved by FITC-DiOC6 and DAPI. Similar effects of Dbait molecules were observed (FIG. 3.2). […] This provides visual evidence that these Dbait molecules can be used for trapping proteins involved in DSB repair via NHEJ pathway.
For immunodetection, the cells were grown on coverslip in 5 cm diameter Petri dishes 24 hours before the transfection with different Dbait molecules. One day after the transfection, FITC-DiOC6 (Molecular probes) was added in the medium 5 minutes at 37° C. (to counterstain the membranes). After 3 washing cycles, the cells were fixated with 4% PFA for 20 minutes.
After additional washing, γ-H2AX phosphorylated on serine 139 (γ-H2AX) was detected with. rabbit anti-γ-H2AX antibody (4411-PC, Trevigen) diluted 1/100 in 1×PBS, 1% BSA. Cells were washed three times with 1×PBS, 0.5%, TritonX-100, then incubated for 1 hour at room temperature with goat anti-rabbit antibodies Alexa 594 (Molecular Probes) diluted 1/100 in 1×PBS, 1% BSA. Cells were visualized by epifluorescence microscopy.

[3] = test system: Hep2 xenografted tumors; test: Radiosensitization of Hep2 (HNSCC) tumors xenografted on nude mice; type: in vivo; parameters: Mean TGD: unit not given here
Method: In vivo activity of Dbait molecules in association with radiotherapy was assessed by using nude mice xenografted with human tumors by subcutaneous injection of radio-resistant cell lines (Hep2 derived from head and neck squmous cell carcinoma, HNSCC) or tumor fragments (previously obtained by subcutaneous injection of the U87 cell lines derived of glioblastoma).
Investigations were mainly carried out on the mice xenografted with radio-resistant human HNSCC tumors in order to establish proof of concept in vivo. Irradiation was performed with γ-rays from a ^137Cs source with appropriate protection of mice in order to perform localized irradiation of tumors. Typical assay condition consists of intratumoral injection of an appropriate preparation of 1 nmole Dbait molecules with transfecting agents (cationic dendrimer (Superefct, Qiagene), dioctadecylamidoglycyl-spermine (DOGS, Polyplus transfection), polyethyleneimine (PEI, Polyplus Transfection) according to manufacturer's instruction, 5 hours prior irradiation. A total dose of 30 Gy was delivered in 5 weeks: i) 3×2 Gy/week (about one every two days); ii) 5 Gy/week; iii) 15 Gy/2 weeks.
The size of tumor was measured 2-3 times a week. Treatment by irradiation and intratumoral injection of MEM medium (the Dbait dilution buffer), was used as a control of irradiation treatment without Dbait. The volume of tumor was calculated ([…], where a=length, b=width). The ratio of volume measured at t time over the initial volume (Vt/Vi) was used as indicator of tumor progression. The mice were followed up to 100 days. At least 4 independent series of six animals were tested.
MEM or Dbait32H (SEQ ID NO: 1) was delivered by intratumoral injection 5 hours prior irradiation. The fractionated irradiation dose (2 Gy) was given one of every two days, three times a week. The treatment lasted 5 weeks totaling 30 Gy irradiation. The dots represent the time course of tumor volume of each mouse. The solid lines are the best polynomial fitting.
Tumor growth was monitored during treatment and after in four groups of 10 animals with different treatments (untreated, treated with Dbait32H (SEQ ID NO: 1) alone, treated by irradiation alone, and the combined Dbait32H (SEQ ID NO: 1) and irradiation). Individual tumor growth is indicated for each animal. The treatment protocol was the same as described in FIG. 4.1. The experiment started when the volume of Hep2 tumors reached 150-200 mm^3. For each treatment session, 20 μg Dbait32H (SEQ ID NO: 1) formulated with polyethyleneimine (PEI, Polyplus Transfection, Strasbourg, France) according to the manufacturer's instruction was injected into tumor 5 hours prior 2 Gy irradiation.
For ethical reason, the animals were sacrificed when their tumors reached 2 cm^3. This end-point was used as death in survival analysis. The treatment protocol was described in FIG. 4.3. The five groups were included: untreated, mock-tranfected and irradiated, treated by combined irradiation and increasing amount of Dbait32H (SEQ ID NO: 1) (20, 60 and 120 μg/session). […] Pictures of tumors representative of the groups (untreated, treated with 20 and 60 μg Dbait32H/session associated with 2 Gy irradiation) which were taken 15 days after beginning of treatment, at the end of treatment (35 days) and 13 days after the end of treatment (35+13 days). They provided clear visual comparison of the benefit of the combined Dbait32H (SEQ ID NO: 1) and irradiation treatment.
Descriptive analyses of the tumor response were performed for each treatment and each tumor type. Day 1 was the day of the first treatment session. All the animals were followed for at least 150 days or until their ethical sacrifice. Median lifetime was estimated according to the Kaplan-Meier method. TGD was calculated by subtracting the mean tumor volume quadrupling time of the control group from tumor volume quadrupling times of individual mice in each treated group. […]

[4] = Hep2, 15 × 2 Gy, 15 × 20 μg (1 nmole)
[5] = Hep2, 15 × 2 Gy, 15 × 60 μg (3 nmole)
[6] = Hep2, 15 × 2 Gy, 15 × 120 μg (6 nmole)
[7] = Hep2, no irradiation, 15 × 20 μg (1 nmole)
[8] = Hep2, 15 × 2 Gy, 15 × 120 μg (12 nmole)
[9] = Hep2, no irradiation, 15 × 120 μg (12 nmole)

Dbait32H: hairpin double strand DNA with a stem of 32-bp, hexaethyleneglycol linker, phosphorothioate at the free blunt end (DNA ACGCACGGGTGTTGGGTCGTTTGTTCGGATCT; DNA, backbone not given here; hairpin, hexaethyleneglycol loop, 3-bp phosphorothioate at free blunt end)
level of γ-H2AX over time (FACS) [1]: remained high and long
γ-H2AX DSB foci (cell response) [2]: effectively trigger similar cell response as if DNA damages were occurred in nuclei
radiosensitization, tumor growth (Vt/Vi) ([3]; 1 nmole (20 μg) intratumoral 5 hours prior irradiation, 3×2 Gy/week, 5 weeks, versus MEM+3×2 Gy): clearly showed radiosensitization
tumor growth ([3]; 20 μg with PEI intratumoral 5 hours prior 2 Gy, 15 sessions, versus irradiation or Dbait32H alone): greatly reduced
survival (Kaplan-Meier), dose dependence ([3]; 20, 60 and 120 μg/session with 2 Gy irradiation): clear dose-dependent effect
Mean % TGD [3, 4]: 561%
Mean TGD [3, 4]: 49
Median survival time [3, 4]: 93 days
Relative risk ([3]; Hep2, 15 × 2 Gy, 15 × 20 μg (1 nmole), reference C* (Mock + irradiation)): 0.42
Mean % TGD [3, 5]: 880%
Mean TGD [3, 5]: >83
Median survival time [3, 5]: 129 days
Number of cured mice [3, 5]: 3
Relative risk ([3]; Hep2, 15 × 2 Gy, 15 × 60 μg (3 nmole), reference C* (Mock + irradiation)): 0.28
Mean % TGD [3, 6]: 952%
Mean TGD [3, 6]: >91
Median survival time [3, 6]: 150 days
Number of cured mice [3, 6]: 4
Relative risk ([3]; Hep2, 15 × 2 Gy, 15 × 120 μg (6 nmole), reference C* (Mock + irradiation)): 0.18
Mean % TGD [3, 7]: 168%
Mean TGD [3, 7]: 7
Median survival time [3, 7]: 55 days
Relative risk ([3]; Hep2, no irradiation, 15 × 20 μg (1 nmole), reference C (untreated)): 0.62
NMR imaging: necrotic area ([3]; mid-course (7 sessions), 20 μg/session and 2 Gy/session versus irradiation alone): necrotic area was more important
histology: necrosis and apoptosis ([3]; mid-course treatment (7 sessions), 20 days, combined with irradiation versus irradiation alone): enhancement of necrosis and apoptosis was observed
radiosensitization depending on dwell time between intratumoral injection and ionizing radiation ([3]; xenografted tumors on nude mice): 5 hours>>1 hour

Dbait32ss: 32-nt single strand DNA (SEQ ID NO: 1) (DNA ACGCACGGGTGTTGGGTCGTTTGTTCGGATCT; DNA, backbone not given here)
Mean % TGD [3, 8]: 374%
Mean TGD [3, 8]: 29
Median survival time [3, 8]: 80 days
Relative risk ([3]; Hep2, 15 × 2 Gy, 15 × 120 μg (12 nmole), reference C* (Mock + irradiation)): 0.57
Mean % TGD [3, 9]: 156%
Mean TGD [3, 9]: 6
Median survival time [3, 9]: 46 days
Relative risk ([3]; Hep2, no irradiation, 15 × 120 μg (12 nmole), reference C (untreated)): 0.71
in vivo activity (survival of xenografted animals) ([3]; high dose (15 × 120 μg)): inactive
